In the assay the target is T1, human Cot/Tpl2 kinase (Homo sapiens, UniProt P41279).
T1 construct: human Cot/Tpl2 kinase construct encoding residues 30-398; 6His (N); made in house; host or cells: Sf9 insect cells, baculovirus system (BD Biosciences)
T1 sequence (P41279 30-398): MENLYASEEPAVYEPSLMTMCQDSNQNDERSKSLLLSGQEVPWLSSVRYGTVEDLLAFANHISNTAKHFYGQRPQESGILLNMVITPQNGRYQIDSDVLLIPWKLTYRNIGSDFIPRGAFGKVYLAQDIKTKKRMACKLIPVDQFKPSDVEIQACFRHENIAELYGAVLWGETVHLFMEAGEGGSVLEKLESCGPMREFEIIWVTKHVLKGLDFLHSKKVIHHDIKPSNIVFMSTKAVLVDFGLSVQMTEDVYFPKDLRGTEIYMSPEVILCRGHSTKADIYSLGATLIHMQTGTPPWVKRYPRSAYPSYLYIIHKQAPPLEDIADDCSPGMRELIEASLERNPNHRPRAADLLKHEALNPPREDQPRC
The assay is described as follows: Tpl2/Cot kinase assay: GST-MEK1 phosphorylation detected by ELISA (DELFIA Eu). Particulars: 0.4 nM Tpl2, 35 nM GST-MEK1, 50 uM ATP, 1 h at 30° C. The class given is biochemical. On the procedure:
Sf9 cells expressing the kinase were lysed in 50 mM NaPhosphate pH=8; 300 mM NaCl; 5 mM imidazole; 0.1 mM EGTA; 25 mM beta-glycerophosphate; 1% TX-100, 1% glycerol; 6 mM beta-mercaptoethanol and protease inhibitors. The lysate was clarified by centrifugation and was loaded onto a Ni-Sepharose column. The column was washed with 50 mM NaPhosphate pH=8; 300 mM NaCl; 15 mM imidazole; 1% glycerol; and 6 mM beta-mercaptoethanol. His-Tpl2 was eluted with 50 mM NaPhosphate pH=8; 300 mM NaCl; 250 mM imidazole; 1% glycerol; and 6 mM beta-mercaptoethanol. The eluted protein was further purified by size exclusion chromatography. Fractions corresponding to monomeric Tpl2 were then used in the assay.
Tpl2/Cot activity was directly assayed using GST-MEK1 as a substrate. GST-MEK1 phosphorylation on serine residues 217 and 221 was detected by ELISA. 0.4 nM Tpl2 was incubated with 35 nM GST-MEK1 in a kinase reaction buffer containing 20 mM MOPS pH=7.2; 50 uM ATP; 20 mM MgCl2; 1 mM DTT; 25 mM β-glycerophosphate; 5 mM EGTA; and 1 mM sodium orthovanadate for 1 h at 30° C. The compounds of the inventions solubilized in 100% DMSO were pre-diluted in assay buffer so that the final concentration of DMSO in the reaction was 1%. The kinase reaction was carried out in 100 ul volume on 96 well plates. The kinase reaction was then stopped with the addition of 100 mM EDTA. […] After a 1 hour incubation at room temperature, the detection plate was washed 4 times with TBST (TBS+0.05% Tween 20) and then incubated for another hour at room temperature with anti phospho-MEK1 antibody (Cell Signaling) 1:1000 in 10 mM MOPS 7.5; 150 mM NaCl; 0.05% Tween 20; 0.1% Gelatin; 0.02% NaN3; and 1% BSA. The detection plate was washed again and incubated for 30 min with DELFIA Europium (Eu) labeled goat anti-rabbit IgG (Perkin-Elmer), 1:4000 in the same buffer used for the primary incubation. After a final wash, Eu detection solution was added to each well and the Eu signal was measured in a Wallac Victor^2 Multilabel Counter. IC50 calculations were performed using the XLfit software package (IDBS, Guildford, UK).
A general note: In an ELISA, binding on a coated surface is turned into a signal by an enzyme label.
As usually defined, the IC50 is the point on the concentration scale where inhibition reaches its midpoint. Compound `CC(C)(C)OC(=O)N1CCCC(CNc2ccc3ncc(C#N)c(Nc4ccc(F)c(Cl)c4)c3c2)C1` (centres unmarked) [Example 63, 3-{[4-(3-Chloro-4-fluoro-phenylamino)-3-cyano-quinolin-6-ylamino]-methyl}-piperidine-1-carboxylic acid tert-butyl ester] registered an IC50 of more than 40000 nM.

With `N#Cc1cnc2ccc(NCC3CCCNC3)cc2c1Nc1ccc(F)c(Cl)c1` (centres unmarked) [Example 64, 4-(3-Chloro-4-fluoro-phenylamino)-6-[(piperidin-3-ylmethyl)-amino]-quinoline-3-carbonitrile], the IC50 is more than 40000 nM.

Compound `N#Cc1cnc2ccc(NCc3ccccc3)cc2c1Nc1ccc(N2CCOCC2)cc1` [Example 66, 6-(benzylamino)-4-(4-morpholinophenylamino)quinoline-3-carbonitrile] yielded an IC50 of more than 40000 nM.

As for `CN(C)C(=O)c1cc(NCCN2CCOCC2)cc2c(Nc3cccc(Cl)c3)c(C#N)cnc12` [Example 68, 4-(3-chlorophenylamino)-3-cyano-N,N-dimethyl-6-(2-morpholinoethylamino)quinoline-8-carboxamide], 11000 nM corresponded to half-maximal inhibition (IC50).

For the compound `N#Cc1cnc2c(Br)cc(NCCN3CCOCC3)cc2c1Nc1cccc(Cl)c1` [Example 69, 8-bromo-4-(3-chlorophenylamino)-6-(2-morpholinoethylamino)quinoline-3-carbonitrile], half-maximal inhibition (IC50) required 420 nM.

In turn, `N#Cc1cnc2c(Br)cc(NCc3cccnc3)cc2c1Nc1cccc(Cl)c1` [Example 70, 8-bromo-4-(3-chlorophenylamino)-6-(pyridin-3-ylmethylamino)quinoline-3-carbonitrile] returned an IC50 of 36 nM.

The compound `CN(C)C(=O)c1cc(NCc2cccnc2)cc2c(Nc3cccc(Cl)c3)c(C#N)cnc12` [Example 71, 4-(3-chlorophenylamino)-3-cyano-N,N-dimethyl-6-(pyridin-3-ylmethylamino)quinoline-8-carboxamide] came in with an IC50 of 400 nM.

The compound `N#Cc1cnc2ccc(NCc3cccnc3)cc2c1Nc1cccc(Cl)c1` [Example 72, 4-(3-chlorophenylamino)-6-(pyridin-3-ylmethylamino)quinoline-3-carbonitrile] returned an IC50 of 24 nM.

In turn, `N#Cc1cnc2c(NC(=O)c3ccccc3)cc(NCc3cccnc3)cc2c1Nc1cccc(Cl)c1` [Example 73, N-(4-(3-chlorophenylamino)-3-cyano-6-(pyridin-3-ylmethylamino)quinolin-8-yl)benzamide] yielded an IC50 of more than 40000 nM.

In the case of `N#Cc1cnc2c(C#N)cc(NCc3cccnc3)cc2c1Nc1cccc(Cl)c1` [Example 74, 4-(3-chlorophenylamino)-6-(pyridin-3-ylmethylamino)quinoline-3,8-dicarbonitrile], the IC50 stood at 140 nM.

In turn, `N#Cc1cnc2c(NC=O)cc(NCc3cccnc3)cc2c1Nc1cccc(Cl)c1` [Example 75, N-(4-(3-chlorophenylamino)-3-cyano-6-(pyridin-3-ylmethylamino)quinolin-8-yl)formamide] had an IC50 of 2600 nM.

`N#Cc1cnc2c(Br)cc(NCc3cnc[nH]3)cc2c1Nc1ccc(F)c(Cl)c1` [Example 76, 6-((1H-imidazol-5-yl)methylamino)-8-bromo-4-(3-chloro-4-fluorophenylamino)quinoline-3-carbonitrile] gave an IC50 of 6.8 nM.

In turn, `N#Cc1cnc2c(Br)cc(NCc3cccnc3)cc2c1Nc1ccc(F)c(Cl)c1` [Example 77, 8-bromo-4-(3-chloro-4-fluorophenylamino)-6-(pyridin-3-ylmethylamino) quinoline-3-carbonitrile] returned an IC50 of 110 nM.

For the compound `N#Cc1cnc2c(Br)cc(NCc3ccccn3)cc2c1Nc1ccc(F)c(Cl)c1` [Example 78, 8-bromo-4-(3-chloro-4-fluorophenylamino)-6-(pyridin-2-ylmethylamino)quinoline-3-carbonitrile], 75 nM corresponded to half-maximal inhibition (IC50).

The compound `N#Cc1cnc2c(I)cc(NCc3cccnc3)cc2c1Nc1cccc(Cl)c1` [Example 79, 4-(3-chlorophenylamino)-8-iodo-6-(pyridin-3-ylmethylamino)quinoline-3-carbonitrile] showed an IC50 of 570 nM.

Regarding `N#Cc1cnc2c(C(=O)NCc3ccccc3)cc(NCc3cccnc3)cc2c1Nc1cccc(Cl)c1` [Example 80, N-benzyl-4-(3-chlorophenylamino)-3-cyano-6-(pyridin-3-ylmethylamino)quinoline-8-carboxamide], the IC50 is more than 40000 nM.

Turning to `CC(C)C(=O)Nc1cc(NCc2cccnc2)cc2c(Nc3cccc(Cl)c3)c(C#N)cnc12` [Example 81, N-(4-(3-chlorophenylamino)-3-cyano-6-(pyridin-3-ylmethylamino)quinolin-8-yl)isobutyramide], the IC50 is more than 40000 nM.

Compound `CN(C)C(=O)c1cc(NCC2CCCCC2)cc2c(Nc3ccc(F)c(Cl)c3)c(C#N)cnc12` [Example 82, 4-(3-chloro-4-fluorophenylamino)-3-cyano-6-(cyclohexylmethylamino)-N,N-dimethylquinoline-8-carboxamide] yielded an IC50 of 3900 nM.

With `CN(C)C(=O)c1cc(NCc2nc3ccccc3n2C)cc2c(Nc3ccc(F)c(Cl)c3)c(C#N)cnc12` [Example 83, 4-(3-chloro-4-fluorophenylamino)-3-cyano-N,N-dimethyl-6-((1-methyl-1H-benzo[d]imidazol-2-yl)methylamino)quinoline-8-carboxamide], 63 nM corresponded to half-maximal inhibition (IC50).

In the case of `CN(C)C(=O)c1cc(NCc2ccco2)cc2c(Nc3ccc(F)c(Cl)c3)c(C#N)cnc12` [Example 84, 4-(3-chloro-4-fluorophenylamino)-3-cyano-6-(furan-2-ylmethylamino)-N,N-dimethylquinoline-8-carboxamide], the IC50 was more than 40000 nM.

As to `CN(C)C(=O)c1cc(NCc2cccc(C#N)c2)cc2c(Nc3ccc(F)c(Cl)c3)c(C#N)cnc12` [Example 85, 4-(3-chloro-4-fluorophenylamino)-3-cyano-6-(3-cyanobenzylamino)-N,N-dimethylquinoline-8-carboxamide], the IC50 was found to be 670 nM.

Compound `CN(C)C(=O)c1cc(NCc2ccc(C#N)cc2)cc2c(Nc3ccc(F)c(Cl)c3)c(C#N)cnc12` [Example 86, 4-(3-chloro-4-fluorophenylamino)-3-cyano-6-(4-cyanobenzylamino)-N,N-dimethylquinoline-8-carboxamide] gave an IC50 of 1100 nM.

Compound `CN(C)C(=O)c1cc(NCc2cnc[nH]2)cc2c(Nc3ccc(F)c(Cl)c3)c(C#N)cnc12` [Example 87, 6-((1H-imidazol-5-yl)methylamino)-4-(3-chloro-4-fluorophenylamino)-3-cyano-N,N-dimethylquinoline-8-carboxamide] had an IC50 of 130 nM.

Take `CN(C)C(=O)c1cc(NCc2ccc(CO)o2)cc2c(Nc3ccc(F)c(Cl)c3)c(C#N)cnc12` [Example 88, 4-(3-chloro-4-fluorophenylamino)-3-cyano-6-((5-(hydroxymethyl)furan-2-yl)methylamino)-N,N-dimethylquinoline-8-carboxamide]: the IC50 was determined as 250 nM.

The compound `CN(C)C(=O)c1cc(NCc2ccn[nH]2)cc2c(Nc3ccc(F)c(Cl)c3)c(C#N)cnc12` [Example 89, 6-((1H-pyrazol-5-yl)methylamino)-4-(3-chloro-4-fluorophenylamino)-3-cyano-N,N-dimethylquinoline-8-carboxamide] came in with an IC50 of 290 nM.

Regarding `Cc1cc(CNc2cc(C(=O)N(C)C)c3ncc(C#N)c(Nc4ccc(F)c(Cl)c4)c3c2)n(C)n1` [Example 90, 4-(3-chloro-4-fluorophenylamino)-3-cyano-6-((1,3-dimethyl-1-H-pyrazol-5-yl)methylamino)-N, N-dimethylquinoline-8-carboxamide], the IC50 was determined as 1700 nM.

For the compound `CN(C)C(=O)c1cc(NCc2ccccn2)cc2c(Nc3ccc(F)c(Cl)c3)c(C#N)cnc12` [Example 91, 4-(3-chloro-4-fluorophenylamino)-3-cyano-N,N-dimethyl-6-(pyridin-2-ylmethylamino)quinoline-8-carboxamide], the IC50 worked out at 360 nM.

On to `Cc1cccc(CNc2cc(C(=O)N(C)C)c3ncc(C#N)c(Nc4ccc(F)c(Cl)c4)c3c2)c1` [Example 92, 4-(3-chloro-4-fluorophenylamino)-3-cyano-N,N-dimethyl-6-(3-methylbenzylamino)quinoline-8-carboxamide], for which the IC50 was more than 40000 nM.

In turn, `CC(C)NC(=O)c1cc(NCc2cccnc2)cc2c(Nc3ccc(F)c(Cl)c3)c(C#N)cnc12` [Example 93, 4-(3-chloro-4-fluorophenylamino)-3-cyano-N-isopropyl-6-(pyridin-3-ylmethylamino)quinoline-8-carboxamide] yielded an IC50 of more than 40000 nM.

The values are drawn from patent US20060264460A1 (Wyeth, priority 2005, published 2006).
